Where “and” joins values, the source holds several entries; their conditions need not be identical. Equal values may be shown once.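 Tested at 5 concentrations; 48 h exposure; 96-well plates; endpoints linearly interpolated, else capped at highest concentration. The concentration for 50% growth inhibition is given as GI50. TGI: total growth inhibition.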
Test system: MDA-MB-468 breast
Test: inhibition of tumour cell growth, NCI panel, 48 h

Row | SMILES | GI50 | TGI
1 | N#Cc1cccc(Nc2ncc(-c3ccccc3)o2)c1 | 5.29 µM | > 25 µM
2 | COc1ccc(-c2c3c(N)c4c(nc3nc3c2c(C)nn3-c2ccccc2)CCCC4)cc1 | 2.33 µM | 7.67 µM
3 | O=c1[nH]c2ccccc2n1C1CCN(CCCC(c2ccc(F)cc2)c2ccc(F)cc2)CC1 | 1.32 µM and 1.5 µM | 2.83 µM and 4.46 µM
4 | COCCOCCOCCOCCOC(=O)OC[n+]1ccc(NC(=NCCCCCCOc2ccc(Cl)cc2)NC#N)cc1 | 1.42 µM | 9.99 µM
5 | Clc1nc(Cl)c2ncn(CCOCCn3cnc4c(Cl)nc(Cl)nc43)c2n1 | 0.179 µM | 0.359 µM
6 | COc1cc(C(=O)/C=C/c2c(C(F)(F)F)nc3ccccn23)cc(OC)c1OC | 2.12 µM | 4.72 µM
7 | CCN(Cc1ccc(F)cc1)c1ccc(CO)c(C(F)(F)F)c1 | 0.165 µM | 0.499 µM
8 | Nc1nc(-c2ccc(Cl)cc2)nc2c1sc(=S)n2-c1ccccc1 | 4.06 µM | 23.2 µM
9 | CC(C)N(Cc1ccc(F)cc1)c1ccc(CO)c(Cl)c1 | 0.017 µM | 0.0463 µM
10 | O=C1/C(=C/c2ccccc2[N+](=O)[O-])COc2ccc(O)cc21 | 1.1 µM | 4.56 µM
11 | C=CC[N+]1(CC)CCN=C1CCCCCCCCCCCCCCCCC (stereo not drawn) | 0.135 µM | 0.538 µM
12 | CC1SC(c2ccc(Cl)cc2)N(CCc2cccs2)C1=O (stereo not drawn) | 1.47 µM | 3.75 µM
13 | COC(=O)c1cc([N+](=O)[O-])cc([N+](=O)[O-])c1Cl | 1.22 µM | 2.57 µM
14 | C[C@@H](NC(=O)c1ccc(F)cc1)c1ccc2c(c1)CCN2C(=O)C1CCOCC1 | > 100 µM | > 100 µM
15 | N#CCNC(=O)c1ccc(-c2ccnc(Nc3ccc(N4CCOCC4)cc3)n2)cc1 | 2.69 µM and 2.35 µM | > 10 µM and 11.9 µM
16 | NCc1ccc(-c2nc(-c3ccc(Cl)c(O)c3)c(-c3ccncc3)[nH]2)cc1 | > 12.2 µM | > 25 µM
17 | CC1(C)[C@H](O)[C@H](F)C[C@@]2(C)Oc3ccc(C(=O)Nc4ccc5c(c4)NC(=O)C54CCN(CCCCC#N)CC4)cc3C[C@H]12 | 0.0654 µM and 0.128 µM | 10.7 µM
18 | COC1=C(OC)C(=O)C(CCCCCCCCCCO)=C(C)C1=O | 1.66 µM | 3.76 µM
19 | CCn1ccnc1C(=O)/C=C/c1ccc(CC(=O)Nc2ccc(F)cc2)cc1 | 1.99 µM | 4.94 µM
20 | CC(=O)N(O)c1ccc(/C=C/c2ccccc2)cc1 | 0.0686 µM | 0.932 µM
21 | Cc1ccc(-n2c(-c3cc4c([nH]c5ccccc54)c(-c4cccc(O)c4)n3)n[nH]c2=S)cc1 | 0.28 µM | 1.18 µM
22 | O=C(NCCCNc1cc(-c2cn(-c3ccccc3)nc2-c2cccc(O)c2)ccn1)Nc1cccc(C(F)(F)F)c1 | 1.61 µM | 6.15 µM
23 | N#Cc1c(NC(=O)c2ccccc2F)sc2c1CCCC2 | 5.65 µM | > 25 µM
24 | c1ccc(C2CCCCC2)c(OCCCCCN2CCNCC2)c1 | 1.77 µM | 4.2 µM

Row | SMILES | GI50 | TGI
25 | COc1ccc(S(=O)(=O)N2CCNCC2)cc1OC | > 100 µM | > 100 µM
26 | O=S(=O)(NCCCNc1cc(-c2cn(-c3ccccc3)nc2-c2cccc(O)c2)ccn1)c1ccc(F)cc1 | 2.55 µM | 6.73 µM
27 | COc1cc(-c2ncn(/C=C\c3nnco3)n2)cc(C(F)(F)F)c1 | 0.518 µM | 3.96 µM
28 | COc1ccc(C2CC(c3ccc(N(C)C)cc3)=NN2c2ccc(S(N)(=O)=O)cc2)cc1 (stereo not drawn) | 3.28 µM | > 100 µM
29 | Clc1ccc([I+]c2ccc(Cl)cc2Cl)c(Cl)c1 | 1.33 µM | 2.81 µM
30 | C=CCN(CC=C)C(=O)[C@H](CC)[C@@H]1CC[C@@H](C)[C@@H]([C@H](C)[C@@H](O)[C@@H](C)C(=O)[C@H](CC)C2O[C@]3(C=C[C@@H](O)[C@]4(CC[C@@](C)([C@H]5CC[C@](O)(CC)[C@H](C)O5)O4)O3)[C@H](C)C[C@@H]2C)O1 (stereo partly drawn) | 1.53 µM | 4.84 µM
31 | COc1ccc(-c2[nH]c3ccccc3c2/C=C(\C#N)S(=O)(=O)c2ccccc2)cc1 | – | 1.93 µM
32 | Nc1nc2ccccc2c2c1S(=O)(=O)c1ccc(Cl)cc1C2=O | 0.735 µM | 2.15 µM
33 | C=C1C(=O)O[C@H]2[C@H]1CC/C(COC(=O)NCc1c[nH]c3ccc(F)cc13)=C\CC[C@@]1(C)O[C@@H]21 | 1.09 µM | 2.91 µM
34 | O=C(c1cc(Cc2n[nH]c(=O)c3ccccc23)ccc1F)N1CCN(C(=O)C2CC2)CC1 | 8.29 µM and 13.9 µM | > 100 µM
35 | COc1ccc2c(c1)C(=O)c1c-2c(=O)n(CCCN(C)C)c2cc(OC)c(OC)cc12 | 1.43 µM | 9.92 µM
36 | C[C@H]1CN(C2COC2)CCN1c1ccc(Nc2cc(-c3ccnc(N4CCn5c(cc6c5CC(C)(C)C6)C4=O)c3CO)cn(C)c2=O)nc1 | 22.9 µM | 89.4 µM
37 | O=S(=O)(NCCCNc1nccc(-c2c(-c3ccc(F)cc3)nc3sccn23)n1)c1ccc(F)cc1 | 4.55 µM | > 100 µM
38 | COc1cc2c(cc1NC(=O)C(Cl)Cl)-c1ccc(NC(=O)C(Cl)Cl)cc1C2 | 0.28 µM | 0.931 µM
39 | Fc1ccc2nc(-c3nc(-c4ccccc4)n4ccccc34)[nH]c2c1 | 1.49 µM | 4.02 µM
40 | O=C1c2ccccc2C(=O)c2c1cc1c(c2[N+](=O)[O-])OCO1 | 1.64 µM | 4.41 µM
41 | S=C(NCc1ccc2c(c1)OCO2)N1CCN(c2ncnc3c2oc2ccccc23)CC1 | 0.456 µM | > 100 µM
42 | C=CC(=O)N[C@@H](/C=C/C(=O)OCC)Cc1ccc(-c2cc(Cl)cc(Cl)c2)cc1 | 5.17 µM | 48.1 µM
43 | CC1CCN(CCOc2ccc(CNc3ccc4nc(CCC5CCCCC5)[nH]c4c3)cc2)CC1 | 1.55 µM | 3.25 µM
44 | Cn1c(C(=O)c2cccc3ccccc23)nc2ccccc21 | 5.92 µM | > 100 µM
45 | N#C/C(=C\c1cc2ccc(N3CCC3)cc2oc1=O)C(=O)N(CC(=O)O)CC(=O)O | > 100 µM | > 100 µM
46 | COc1ccc(COc2cc3oc(=O)c4cc(C(C)O)ccc4c3cc2OC)cc1 (stereo not drawn) | 9.2 µM | > 100 µM
47 | COc1ccc(/C=N\Nc2nc(SCC(C)C)nc(-c3ccc(OC)cc3)c2C#N)cc1 | 4.36 µM | 28 µM
